According to patent US20150307461A1, “ANTIVIRAL COMPOUNDS” (priority 2012, published 2015):

Legend:
Test in all cases: microbe, parasite or virus in culture
[1] = system: Pseudotyped HCV GT1a particles (HCVpp); format: cell-based, HCV GT1a H77 strain; settings: Hepatitis C virus, 72 h, read-out: HCVpp GT-1a (EC50, μM)
[2] = system: Pseudotyped HCV GT1b particles (HCVpp); format: cell-based, HCV GT1b Con1 strain; settings: Hepatitis C virus, 72 h, read-out: HCVpp GT-1b (EC50, μM)
[3] = system: pseudotyped VSV G particles (VSVpp); format: cell-based; settings: Vesicular stomatitis virus, 72 h, read-out: VSVpp (EC50, μM)

## Nc1nc(Nc2cc(F)cc(S(F)(F)(F)(F)F)c2)n[nH]1 [Compound I-73, N*3*-(3-Fluoro-5-pentafluorosulfur-phenyl)-1H-[1,2,4]triazole-3,5-diamine]
[1]
  EC50: 0.035 µM
[2]
  EC50: 0.188 µM
[3]
  EC50: 100 µM

## CC(C)(C)C#Cc1c(Cl)cc(Nc2n[nH]c(N)n2)cc1Cl [Compound I-79, N^3-[3,5-Dichloro-4-(3,3-dimethyl-but-1-ynyl)-phenyl]-1H-[1,2,4]triazole-3,5-diamine]
[1]
  EC50: 0.051 µM
[2]
  EC50: 3.31 µM
[3]
  EC50: 66 µM

## CC(C)(C)C#Cc1ccc(Nc2n[nH]c(N)n2)cc1Cl [Compound I-80, N^3-[3-Chloro-4-(3,3-dimethyl-but-1-ynyl)-phenyl]-1H-[1,2,4]triazole-3,5-diamine]
[1]
  EC50: 1.12 µM
[2]
  EC50: 11.2 µM
[3]
  EC50: 91.6 µM

## Nc1nc(Nc2cc(F)c(Br)c(S(F)(F)(F)(F)F)c2)n[nH]1 [Compound I-83, N*3*-(4-Bromo-3-fluoro-5-pentafluorosulfur-phenyl)-1H-[1,2,4]triazole-3,5-diamine]
[1]
  EC50: 0.076 µM
[2]
  EC50: 0.17 µM
[3]
  EC50: 32.5 µM
